Assay results from paper PMC9409388 (2022).

How the values were obtained:
[1] = tested on: Tel (DNA, G4) GGGTTAGGGTTAGGGTTAGGGTTA; test: thiazole orange displacement (G4-FID); conditions: 100 mM KCl; 10 mM sodium cacodylate pH 7.3, 18 °C; thiazole orange displaced; from DC50, TO Kb 2.62 × 10^6
[2] = tested on: DNA hairpin (DNA, hairpin) CAATCGGATCGAATTCGATCCGATTG; test: thiazole orange displacement (G4-FID); conditions: 100 mM KCl, 10 mM sodium cacodylate pH 7.3, 18 °C, thiazole orange displaced; for Kb: from DC50, TO Kb 3.03 × 10^6
[3] = tested on: c-KIT (DNA, G4) GGGAGGGCGCTGGGAGGAGGG; test: thiazole orange displacement (G4-FID); conditions: 100 mM KCl; 10 mM sodium cacodylate pH 7.3, 18 °C; thiazole orange displaced; from DC50, assumed TO Kb 2.5 × 10^6
[4] = tested on: KRAS (DNA, G4) GGGCGGTGTGGGAAGAGGGAAGAGGGGGAGG; test: thiazole orange displacement (G4-FID); conditions: 100 mM KCl, 10 mM sodium cacodylate pH 7.3, 18 °C
[5] = tested on: VEGF (VEGFA) (DNA, G4) GGGGCGGGCCGGGGGCGGGG; test: thiazole orange displacement (G4-FID); conditions: 100 mM KCl, 10 mM sodium cacodylate pH 7.3, 18 °C
[6] = tested on: KRAS (DNA, G4) GGGCGGTGTGGGAAGAGGGAAGAGGGGGAGG; test: thiazole orange displacement (G4-FID); conditions: 100 mM KCl; 10 mM sodium cacodylate pH 7.3, 18 °C; thiazole orange displaced; from DC50, assumed TO Kb 2.5 × 10^6
[7] = tested on: BCL2 (DNA, G4) AGGGGCGGGCGCGGGAGGAAGGGGGCGGGAGCGGGGC; test: thiazole orange displacement (G4-FID); conditions: 100 mM KCl, 10 mM sodium cacodylate pH 7.3, 18 °C
[8] = tested on: WNT1 (DNA, G4) GGGGGCCACCGGGCAGGGGGCGGGGG; test: thiazole orange displacement (G4-FID); conditions: 100 mM KCl; 10 mM sodium cacodylate pH 7.3, 18 °C; thiazole orange displaced; from DC50, assumed TO Kb 2.5 × 10^6
[9] = tested on: c-MYC (DNA, G4) GGGGAGGGTGGGGAGGGTGGGGAAGG; test: thiazole orange displacement (G4-FID); conditions: 100 mM KCl; 10 mM sodium cacodylate pH 7.3, 18 °C; 1 µM thiazole orange displaced, 0.5 µM DNA
[10] = tested on: WNT1 (DNA, G4) GGGGGCCACCGGGCAGGGGGCGGGGG; test: thiazole orange displacement (G4-FID); conditions: 100 mM KCl, 10 mM sodium cacodylate pH 7.3, 18 °C
[11] = tested on: BCL2 (DNA, G4) AGGGGCGGGCGCGGGAGGAAGGGGGCGGGAGCGGGGC; test: thiazole orange displacement (G4-FID); conditions: 100 mM KCl; 10 mM sodium cacodylate pH 7.3, 18 °C; thiazole orange displaced; from DC50, assumed TO Kb 2.5 × 10^6
[12] = tested on: Tel (DNA, G4) GGGTTAGGGTTAGGGTTAGGGTTA; test: thiazole orange displacement (G4-FID); conditions: 100 mM KCl, 10 mM sodium cacodylate pH 7.3, 18 °C
[13] = tested on: VEGF (VEGFA) (DNA, G4) GGGGCGGGCCGGGGGCGGGG; test: thiazole orange displacement (G4-FID); conditions: 100 mM KCl; 10 mM sodium cacodylate pH 7.3, 18 °C; thiazole orange displaced; from DC50, assumed TO Kb 2.5 × 10^6
[14] = tested on: c-KIT (DNA, G4) GGGAGGGCGCTGGGAGGAGGG; test: thiazole orange displacement (G4-FID); conditions: 100 mM KCl, 10 mM sodium cacodylate pH 7.3, 18 °C
[15] = tested on: c-MYC (DNA, G4) GGGGAGGGTGGGGAGGGTGGGGAAGG; test: thiazole orange displacement (G4-FID); conditions: 100 mM KCl; 10 mM sodium cacodylate pH 7.3, 18 °C; thiazole orange displaced; from DC50, TO Kb 1.50 × 10^6
[16] = tested on: c-MYC (DNA, G4) GGGGAGGGTGGGGAGGGTGGGGAAGG; test: UV melting at 295 nm; conditions: 140 mM NaCl, 0.5 mM KCl; 20 mM Tris-HCl pH 7.3; 2 equivalents of compound, ~3 µM DNA
[17] = tested on: DNA hairpin (DNA, hairpin) CAATCGGATCGAATTCGATCCGATTG; test: thiazole orange displacement (G4-FID); conditions: 100 mM KCl, 10 mM sodium cacodylate pH 7.3, 18 °C
[18] = 1 µM thiazole orange displaced, 0.5 µM DNA
[19] = thiazole orange displaced, highest concentration 10 µM
[20] = thiazole orange displaced, above highest stated concentration (10 µM)

For `CC1=CC(=O)C(C(C)C)=CC1=O`, which Kb [1] is on record?
Its Kb is 1.68 ± 0.13 × 10^6 M^-1.

What about the binding ([2]; Kb printed as 0, up to 10 µM) of the same compound?
The binding was “no”.

What about the Kb [3] of the same compound?
Its Kb is 1.61 ± 0.23 × 10^6 M^-1.

And the DC50 [4, 18]?
Its DC50 is 2300 ± 330 nM.

What about the DC50 [5, 18] of the same compound?
Its DC50 is 2330 ± 330 nM.

And the Kb [6]?
Its Kb is 1.52 ± 0.22 × 10^6 M^-1.

And the DC50 [7, 18]?
Its DC50 is 1220 ± 100 nM.

What about the Kb [8] of the same compound?
The Kb was 2.71 ± 0.39 × 10^6 M^-1.

What about the DC50 [9] of the same compound?
The DC50 was 3970 ± 250 nM.

And the DC50 [10, 18]?
The DC50 was 1290 ± 190 nM.

And the Kb [11]?
Its Kb is 2.87 ± 0.41 × 10^6 M^-1.

What about the DC50 [12, 18] of the same compound?
The DC50 was 2150 ± 170 nM.

What about the Kb [13] of the same compound?
The Kb was 1.50 ± 0.21 × 10^6 M^-1.

What about the DC50 [14, 18] of the same compound?
Its DC50 is 2170 ± 310 nM.

What about the Kb [15] of the same compound?
The Kb was 0.63 ± 0.04 × 10^6 M^-1.

How did the DC50 [4, 19] turn out when `COc1cc(/C=C/C(=O)CC(=O)/C=C/c2ccc(O)c(OC)c2)ccc1O` was run?
Its DC50 is greater than 10000 nM.

What about the DC50 [5, 19] of the same compound?
The DC50 was greater than 10000 nM.

What about the DC50 [7, 19] of the same compound?
Its DC50 is greater than 10000 nM.

What about the DC50 [9] of the same compound?
The DC50 was 9620 ± 700 nM.

What about the DC50 [10, 19] of the same compound?
The DC50 was greater than 10000 nM.

And the DC50 [12, 19]?
The DC50 was greater than 10000 nM.

And the DC50 [14, 19]?
The DC50 was greater than 10000 nM.

And the Kb [15]?
Its Kb is 0.26 ± 0.02 × 10^6 M^-1.

Which results are given for `C[n+]1cc2c3c(ccc2c2ccc4cc5c(cc4c21)OCO5)OCO3`?
Kb [1]: 0.43 ± 0.03 × 10^6 M^-1; Kb [2]: 1.30 ± 0.17 × 10^6 M^-1; Kb [3]: 3.28 ± 0.47 × 10^6 M^-1; DC50 [4, 18]: 3760 ± 530 nM; DC50 [5, 18]: 4070 ± 570 nM; increase in Tm [16]: 3.5 ± 0.3 °C; DC50 [17, 18]: 3080 ± 400 nM; Kb [6]: 0.93 ± 0.13 × 10^6 M^-1; DC50 [7, 18]: 850 ± 120 nM; Kb [8]: 2.83 ± 0.40 × 10^6 M^-1; DC50 [9]: 320 ± 20 nM; DC50 [10, 18]: 1240 ± 170 nM; Kb [11]: 4.12 ± 0.59 × 10^6 M^-1; DC50 [12, 18]: 8420 ± 590 nM; Kb [13]: 0.86 ± 0.12 × 10^6 M^-1; DC50 [14, 18]: 1070 ± 150 nM; Kb [15]: 7.76 ± 0.53 × 10^6 M^-1

What does the source list for `O=C(O[C@@H]1Cc2c(O)cc(O)cc2O[C@@H]1c1cc(O)c(O)c(O)c1)c1cc(O)c(O)c(O)c1`?
Kb [1]: 1.81 ± 0.14 × 10^6 M^-1; Kb [3]: 1.44 ± 0.21 × 10^6 M^-1; DC50 [4, 18]: 2160 ± 310 nM; DC50 [5, 18]: 2000 ± 280 nM; Kb [6]: 1.62 ± 0.23 × 10^6 M^-1; DC50 [7, 18]: 960 ± 140 nM; Kb [8]: 2.75 ± 0.39 × 10^6 M^-1; DC50 [9]: 850 ± 60 nM; DC50 [10, 18]: 1270 ± 180 nM; Kb [11]: 3.65 ± 0.52 × 10^6 M^-1; DC50 [12, 18]: 2000 ± 150 nM; Kb [13]: 1.75 ± 0.25 × 10^6 M^-1; DC50 [14, 18]: 2430 ± 350 nM; Kb [15]: 2.94 ± 0.20 × 10^6 M^-1

How did the Kb [1] turn out when `O=c1c(O)c(-c2ccc(O)c(O)c2)oc2cc(O)cc(O)c12` was run?
Its Kb is 7.43 ± 0.55 × 10^6 M^-1.

And the Kb [2]?
Its Kb is 0.038 ± 0.004 × 10^6 M^-1.

And the Kb [3]?
The Kb was 3.80 ± 0.54 × 10^6 M^-1.

And the DC50 [4, 18]?
The DC50 was 2030 ± 300 nM.

And the DC50 [5, 18]?
The DC50 was 1130 ± 160 nM.

What about the “increase in Tm” value [16] of the same compound?
Its value is 3.0 ± 0.3 °C.

And the DC50 [17, 20]?
The DC50 was 105260 ± 11080 nM.

And the Kb [6]?
Its Kb is 1.72 ± 0.25 × 10^6 M^-1.

What about the DC50 [7, 18] of the same compound?
The DC50 was 630 ± 90 nM.

What about the Kb [8] of the same compound?
The Kb was 2.07 ± 0.30 × 10^6 M^-1.

What about the DC50 [9] of the same compound?
The DC50 was 470 ± 30 nM.

And the DC50 [10, 18]?
Its DC50 is 1690 ± 240 nM.

And the Kb [11]?
The Kb was 5.56 ± 0.79 × 10^6 M^-1.

And the DC50 [12, 18]?
The DC50 was 490 ± 40 nM.

And the Kb [13]?
The Kb was 3.10 ± 0.44 × 10^6 M^-1.

And the DC50 [14, 18]?
The DC50 was 920 ± 130 nM.

What about the Kb [15] of the same compound?
The Kb was 5.33 ± 0.36 × 10^6 M^-1.

What does the source list for `O=c1c(O)c(-c2ccc(O)cc2)oc2cc(O)cc(O)c12`?
Kb [1]: 1.81 ± 0.14 × 10^6 M^-1; Kb [2]: 0.035 ± 0.002 × 10^6 M^-1; Kb [3]: 1.63 ± 0.23 × 10^6 M^-1; DC50 [4, 18]: 2150 ± 310 nM; DC50 [5, 18]: 1670 ± 240 nM; DC50 [17, 20]: 114290 ± 6530 nM; Kb [6]: 1.63 ± 0.23 × 10^6 M^-1; DC50 [7, 18]: 2000 ± 280 nM; Kb [8]: 3.03 ± 0.43 × 10^6 M^-1; DC50 [9]: 2160 ± 150 nM; DC50 [10, 18]: 1160 ± 160 nM; Kb [11]: 1.75 ± 0.25 × 10^6 M^-1; DC50 [12, 18]: 2000 ± 150 nM; Kb [13]: 2.09 ± 0.30 × 10^6 M^-1; DC50 [14, 18]: 2150 ± 300 nM; Kb [15]: 1.16 ± 0.08 × 10^6 M^-1
